Results as given in PubChem BioAssay AID743181 (NMMLSC, 2013).
The source made the active and inactive calls.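 The calls were made as follows: active = at least 15% GFP+ cells at the top dose together with an EC50 below 10 µM; inactive = the rest.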

system: HOXA9-ER marrow cells, lysozyme-GFP differentiation, flow; test: differentiation promoters in HOXA9-arrested myeloid cells, SAR follow-up, HOXA9-ER marrow cells, GFP flow, set 1 (AID 743181); details: not given

| EC50 | SMILES |
| --- | --- |
| 5.42 µM | O=C(CCNC(=O)c1cccc(Cl)c1)N[C@@H]1CCCc2ccccc21 |
| 3.24 µM | O=C(CCNC(=O)c1ccc(Cl)c(Cl)c1)N[C@@H]1CCCc2ccccc21 |
| 3.47 µM | O=C(CCNC(=O)c1ccc(Cl)cc1)N[C@@H]1CCCc2ccccc21 |
| 8.68 µM | Cc1ccc(C(=O)NCCC(=O)N[C@@H]2CCCc3ccccc32)cc1 |
| 4.95 µM | COc1ccc(C(=O)NCCC(=O)N[C@@H]2CCCc3ccccc32)cc1 |
| 5.06 µM | O=C(CCNC(=O)c1ccc(Cl)cc1)NC1CCCc2ccccc21 (stereo not given) |
| 5.4 µM | O=C(O)c1cccnc1Nc1ccc(Cl)cc1 |
| 1.61 µM | O=C(CCNC(=O)c1ccc(OC(F)(F)F)cc1)N[C@@H]1CCCc2ccccc21 |
| 4.69 µM | O=C(CCNC(=O)c1ccc2c(c1)OC(F)(F)O2)N[C@@H]1CCCc2ccccc21 |
| 2.63 µM | O=C(CCNC(=O)c1ccc(C(F)(F)F)cc1)N[C@@H]1CCCc2ccccc21 |
| 9.97 µM | O=C(CCNC(=O)c1ccc(Cl)cc1)N[C@@H]1CCc2ccccc21 |

system: not listed separately; test: as above; details: HOXA9-ER marrow cells, lysozyme-GFP differentiation, flow; at 10 µM (top of the series)

| SMILES | GFP+ cells, differentiation |
| --- | --- |
| O=C(CNC(=O)c1ccc(Cl)cc1)N[C@@H]1CCCc2ccccc21 | 4% (inactive) |
| COc1ccccc1C(C)NC(=O)CCNC(=O)c1ccc(Cl)cc1 (stereo not given) | 0% (inactive) |
| CC(C)(C)OC(=O)NCCC(=O)N[C@@H]1CCCc2ccccc21 | 1% (inactive) |
| N#Cc1ccc(C(=O)NCCC(=O)N[C@@H]2CCCc3ccccc32)cc1 | 16% (inactive) |
| Cc1cccc(C(=O)NCCC(=O)NC2CCCc3ccccc32)c1 (stereo not given) | 1% (inactive) |
| O=C(O)c1ccccc1OCc1ccccc1Br | 1% (inactive) |
| O=C(CNC(=O)c1ccc(OC(F)(F)F)cc1)N[C@@H]1CCCc2ccccc21 | 1% (inactive) |
| C[C@@H](NC(=O)CCNC(=O)c1ccc(Cl)cc1)c1ccccc1 | 1% (inactive) |
| O=C(Cc1ccc(Cl)cc1)NCCC(=O)N[C@@H]1CCCc2ccccc21 | 16% (inactive) |
| O=C(CCNC(=O)c1ccccc1)N[C@@H]1CCCc2ccccc21 | 3% (inactive) |
| Cc1ccc(C)c(OCCn2cc(C(=O)O)c3ccccc32)c1 | 0% (inactive) |
| O=C(CCNC(=O)c1ccc(Cl)cc1)NC1CCCCC1 | 1% (inactive) |
| CC(=O)NCCC(=O)N[C@@H]1CCCc2ccccc21 | 0% (inactive) |
| CC(c1ccccc1)N(C)C(=O)CCNC(=O)c1ccc(Cl)cc1 (stereo not given) | 0% (inactive) |
| O=C(CCCNC(=O)c1ccc(C(F)(F)F)cc1)N[C@@H]1CCCc2ccccc21 | 1% (inactive) |
| O=C(NC1CCc2ccccc21)C1CCCN(C(=O)c2ccc(Cl)cc2)C1 (stereo not given) | 1% (inactive) |
| O=C(NC1CCOc2ccccc21)C1CCCN(C(=O)c2ccc(Cl)cc2)C1 (stereo not given) | 1% (inactive) |
| O=C(CCCNC(=O)c1ccc(Cl)c(Cl)c1)N[C@@H]1CCCc2ccccc21 | 1% (inactive) |
| O=C(CNC(=O)c1ccc(C(F)(F)F)cc1)N[C@@H]1CCCc2ccccc21 | 1% (inactive) |
| CC(NC(=O)CCNC(=O)c1ccc(Cl)cc1)c1ccc(F)cc1 (stereo not given) | 1% (inactive) |
| NCCC(=O)N[C@@H]1CCCc2ccccc21 | 1% (inactive) |
| CC(NC(=O)C1CCCN(C(=O)c2ccc(Cl)cc2)C1)c1ccccc1 (stereo not given) | 0% (inactive) |
| O=C(CNC(=O)c1ccc(Cl)c(Cl)c1)N[C@@H]1CCCc2ccccc21 | 2% (inactive) |
| O=C(CCNC(=O)c1ccc(Cl)cc1)N[C@H]1CCCc2ccccc21 | 1% (inactive) |
| O=C(CCCNC(=O)c1ccc(OC(F)(F)F)cc1)N[C@@H]1CCCc2ccccc21 | 1% (inactive) |
| CC(NC(=O)CCNC(=O)c1ccc(Cl)cc1)c1ccc2c(c1)OCO2 (stereo not given) | 0% (inactive) |
| O=C(CCCNC(=O)c1ccc(Cl)cc1)N[C@@H]1CCCc2ccccc21 | 2% (inactive) |
| O=C(CCNC(=O)c1ccc(F)cc1)N[C@@H]1CCCc2ccccc21 | 12% (inactive) |
| CC(C)(C)OC(=O)NCCC(=O)N[C@H]1CCCc2ccccc21 | 1% (inactive) |
